This is an account of results in patent EP4653431A1, “PYRAZOLE DERIVATIVE, AND PHARMACEUTICALLY ACCEPTABLE SALT, STEREOISOMER, PHARMACEUTICAL COMPOSITION AND USE THEREOF” (Starg (Wuhan) Pharmaceutical Technology Co., Ltd, priority 2023, dated 2024).

Structures are written as SMILES. pIC50: −log10 of the molar value. Where a name gives a salt, the structure may show the parent alone. Read-outs that look alike come from different tables or passages of the source.

One data set has as its target T1, CDK2/cyclin E1 (Homo sapiens, UniProt P24941).
T1 construct: purchased SignalChem
Kind of data set: In vitro CDK2/cyclinE enzyme activity assay (TR-FRET). The format is biochemical. Conditions: CDK2/cyclin E1, 1 mM ATP, 120 min at 25 °C. The procedure:
CDK2/cyclin E1 was purchased from SignalChem. Ulight-4E-BP1 peptide, Eu-anti-phospho-tyrosine antibody, and 1X detection buffer solution were purchased from PerkinElmer. High-purity adenosine triphosphate (ATP) was purchased from Promega. Ethylenediaminetetraacetic acid (EDTA) was purchased from Sigma. Nivo multimode plate reader (PerkinElmer) was used.
Preparation of Kinase Buffer Solution: The kinase buffer solution consisted 50 mM HEPES, 1 mM EDTA, 10 mM MgCl2, and 0.01% Brij-35, with pH of 7.4. 2.38 g HEPES, 58 mg EDTA, 406 mg MgCl2, and 20 mg Brij-35 were added to 200 mL buffer, and the pH was adjusted to 7.4.
(§1) The stop solution was prepared by mixing 100 µL of 1 M EDTA stock solution with […] of 1X detection buffer solution and 1725 µL of distilled water.
The enzyme, Ulight-4E-BP1 peptide, ATP, and the inhibitor were diluted using the kinase buffer solution. The Eu-anti-phospho-tyrosine antibody was diluted to a concentration of 8 nM/L using the detection buffer solution. The test compound was serially diluted 5-fold using a multichannel pipette to the 8th concentration, i.e., from 4 µM to 0.0512 nM. The final concentration of DMSO was 4%, and the experiment was set up with duplicate wells. 2.5 µL of each gradient concentration of the inhibitor, 5 µL of CDK2/cyclin E1 enzyme (10 ng), and 2.5 µL of a mixture of substrate and ATP (4 mM ATP, 100 nM Ulight-4E-BP1 peptide) were added to a microplate, resulting in a final concentration gradient of the compound from 1 µM to 0.0128 nM, with final ATP and substrate concentrations of 1 mM and 25 nM, respectively. The reaction system was incubated at 25 °C for 120 minutes. After the reaction, 5 µL of the stop solution was added to each well, and further reacted at 25 °C for 5 minutes to terminate the reaction. Then 5 µL of Eu-anti-phospho-tyrosine antibody dilution was added to each well, and the mixture was reacted at 25 °C for 60 minutes. Data were collected using the PerkinElmer Nivo multimode plate reader in TR-FRET mode (excitation wavelength: 320 nm; emission wavelengths: 615 nm and 665 nm).
The raw data were converted to inhibition rates according to the equation (Sample-Min)/(Max-Min)×100%. The IC50 value was obtained by fitting the data to a four-parameter curve (using log(inhibitor) vs. response -- Variable slope model in GraphPad Prism).

The target in another data set is T2, CDK1/cyclin B1 (Homo sapiens, UniProt P06493).
T2 construct: purchased Carna Biosciences
T2 sequence (P06493 whole entry): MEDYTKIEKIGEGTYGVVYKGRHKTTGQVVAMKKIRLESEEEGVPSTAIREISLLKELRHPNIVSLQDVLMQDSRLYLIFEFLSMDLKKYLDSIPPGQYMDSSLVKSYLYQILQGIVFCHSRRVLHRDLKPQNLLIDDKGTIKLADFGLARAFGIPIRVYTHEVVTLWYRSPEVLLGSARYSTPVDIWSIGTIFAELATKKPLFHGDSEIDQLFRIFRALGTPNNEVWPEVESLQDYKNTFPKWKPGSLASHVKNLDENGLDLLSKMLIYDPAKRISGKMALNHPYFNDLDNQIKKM
T2 sequence (P14635 whole entry partner): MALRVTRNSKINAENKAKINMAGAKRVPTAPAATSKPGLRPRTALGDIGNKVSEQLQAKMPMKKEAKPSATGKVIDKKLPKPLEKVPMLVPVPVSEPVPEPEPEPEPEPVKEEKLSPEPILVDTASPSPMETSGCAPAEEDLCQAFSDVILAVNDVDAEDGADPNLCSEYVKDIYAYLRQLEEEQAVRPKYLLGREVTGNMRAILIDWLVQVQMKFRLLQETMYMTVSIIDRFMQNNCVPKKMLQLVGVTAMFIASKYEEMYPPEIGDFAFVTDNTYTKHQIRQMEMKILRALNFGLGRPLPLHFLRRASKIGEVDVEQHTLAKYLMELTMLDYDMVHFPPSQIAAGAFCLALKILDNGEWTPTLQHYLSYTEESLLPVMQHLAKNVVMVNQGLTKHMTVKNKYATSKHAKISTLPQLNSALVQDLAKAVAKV
Nature of the data set: In vitro CDK1/cyclin B1 enzyme activity assay (TR-FRET). The format is biochemical. The procedure: CDK1/cyclin B1 was purchased from Carna Biosciences. Ulight-4E-BP1 peptide, Eu-anti-phospho-tyrosine antibody, and 1X detection buffer were purchased from PerkinElmer. High-purity ATP was purchased from Promega. EDTA was purchased from Sigma. Nivo multimode plate reader (PerkinElmer) was used.
Preparation of Kinase Buffer Solution: The kinase buffer solution consisted 50 mM HEPES, 1 mM EDTA, 10 mM MgCl2, and 0.01% Brij-35, with pH of 7.4.
as §1
The enzyme, Ulight-4E-BP1 peptide, ATP, and the inhibitor were diluted using the kinase buffer solution.
The Eu-anti-phospho-tyrosine antibody was diluted to a concentration of 8 nM/L using the detection buffer solution.
The final concentration of DMSO was 4%, and the experiment was set up with duplicate wells. […] The reaction system was incubated at 25 °C for 60 minutes. After the reaction, 5 µL of the stop solution was added to each well, and further reacted at 25 °C for 5 minutes to terminate the reaction. Then 5 µL of Eu-anti-phospho-tyrosine antibody dilution was added to each well, and the mixture was incubated at 25 °C for 60 minutes.
The IC50 value was obtained by fitting the data to a four-parameter curve (using log(inhibitor) vs. response -- Variable slope model in GraphPad Prism).
In general terms: TR-FRET usually uses a lanthanide donor and a delayed reading to cut background.

In the next data set the test system is T-47D cells. Nature of the data set: In vitro T-47D cell viability assay (CellTiter-Glo). It is filed as cell-based. Conditions: Homo sapiens, T47D, 168 h, 7 days incubation. The procedure:
1640 medium, fetal bovine serum, and penicillin/streptomycin antibiotics were purchased from Wisent. CellTiter-Glo (cell viability chemiluminescence assay reagent) was purchased from Promega. The T-47D cell line was purchased from Nanjing Cobioer Biosciences Co., Ltd. Envision multimode plate reader (PerkinElmer) was used.
T-47D cells were seeded into a white 384-well plate, with 40 µL of cell suspension containing 300 T-47D cells per well. The cell plate was incubated overnight in a CO2 incubator.
(§2) The test compound was serially diluted 5-fold using a multichannel pipette to the 8th concentration, i.e., from 2000 µM to […]. The experiment was set up with duplicate wells. 78 µL of culture medium was added to an intermediate plate, and 2 µL per well of the gradient-diluted compound was transferred to the corresponding position in the intermediate plate. After mixing, 10 µL per well of the mixture was transferred to the cell plate. The concentration range of the compound transferred to the cell plate was from 10 µM to 0.026 nM. The cell plate was incubated in a CO2 incubator for 7 days. Another cell plate was prepared, and the signal value was read on the day of compound addition to serve as the maximum value (Max in the equation below) for data analysis. 10 µL per well of CellTiter-Glo reagent was added to the cell plate, and the cell plate was incubated at room temperature for 10 minutes to stabilize the luminescence signal. The signal was read using the Envision multimode plate reader.
10 µL per well of CellTiter-Glo reagent was added to the cell plate, and the cell plate was incubated at room temperature for 10 minutes to stabilize the luminescence signal. The signal was read using the Envision multimode plate reader.
The raw data were converted to inhibition rates using the equation (Sample-Min)/(Max-Min)×100%. The IC50 value was obtained by fitting the data to a four-parameter curve (using log(inhibitor) vs. response -- Variable slope model in GraphPad Prism). Table 1 provides the inhibitory activity of the compounds of the present application against T-47D cell proliferation.
In general terms: Cellular ATP, detected with luciferase, serves as a proxy for viable cell number.

For another data set, the system named is OVCAR-3 cells. Kind of data set: In vitro OVCAR-3 cell viability assay (CellTiter-Glo). The format is cell-based. To be noted: Homo sapiens, OVCAR-3, 168 h, 7 days incubation. The procedure:
1640 medium, fetal bovine serum, and penicillin/streptomycin antibiotics were purchased from Wisent. CellTiter-Glo (cell viability chemiluminescence assay reagent) was purchased from Promega. The OVCAR-3 cell line was purchased from Nanjing Cobioer Biosciences Co., Ltd. Envision multimode plate reader (PerkinElmer) was used.
OVCAR-3 cells were seeded into a white 384-well plate, with 40 µL of cell suspension containing 300 OVCAR-3 cells per well. The cell plate was incubated overnight in a CO2 incubator.
as §2, with “the” for “the Envision”
10 µL per well of CellTiter-Glo reagent was added to the cell plate, and the cell plate was incubated at room temperature for 10 minutes to stabilize the luminescence signal. The signal was read using the multimode plate reader.
The raw data were converted to inhibition rates using the equation (Sample-Min)/(Max-Min)×100%. The IC50 value was obtained by fitting the data to a four-parameter curve (using log(inhibitor) vs. response -- Variable slope model in GraphPad Prism). Table 1 provides the inhibitory activity of the compounds of the present application against OVCAR-3 cell proliferation.

The nature of data set [1]: Pharmacokinetic study, oral and intravenous administration in mice. Conditions: mouse, in vivo, ICR male mice; for AUC(0-t): read-out: Area under plasma concentration-time curve AUC0-last. Also noted: species or system ICR mice. The procedure:
This study used ICR male mice as test animals. The plasma concentrations of the test compounds and the reference compound in mice were quantitatively determined at different time points using the LC-MS/MS method following intravenous injection or oral administration to evaluate the pharmacokinetic characteristics of the test compounds in mice.
ICR mice (male, 20-30 g, 6-8 weeks old, Beijing Charles River).
A clear solution of the test compound was administered to ICR mice (fasted overnight or fed) via tail vein injection or oral gavage. For intravenous injection, blood samples (50 µL) were collected via cheek puncture at 0 h (pre-dose) and at 0.083, 0.25, 0.5, 1, 2, 4, 6, 8, and 24 h post-dose into anticoagulant tubes containing sodium heparin. The mixtures were thoroughly vortexed at 4 °C and centrifuged at 6000 rpm for 3 minutes. For oral gavage, blood samples were collected via cheek puncture at 0 h (pre-dose) and at 0.083, 0.25, 1, 2, 4, 6, 8, and 24 h post-dose into anticoagulant tubes containing sodium heparin. The mixtures were vortexed thoroughly, and centrifuged at 6000 rpm for 3 minutes. Plasma drug concentrations were determined using the LC-MS/MS method. Pharmacokinetic parameters were calculated using Phoenix WinNonlin 8.2.0 pharmacokinetic software with a non-compartmental model and linear-logarithmic trapezoidal rule.

Where [2] appears, read: CDK1/cyclin B1, 1 mM ATP, 60 min at 25 °C, Table 1, read-out: CDK1 IC50.
Setting [3] is: exact values stated in the text below Table 1, read-out: IC50 against CDK1.

Turning to `C=NOCc1nn2ccnc(Nc3cc([C@H]4CC[C@@H](OC(=O)NC(C)C)C4)[nH]n3)c2c1F` [Compound 4], the pIC50 – broadly, −log10 of the IC50, conventionally taken in molar units – at CDK2/cyclin E1 was 8.12; at CDK1/cyclin B1 (setting [2]) it was less than 6.00; in the data set on T-47D cells, 6.62; in the data set with OVCAR-3 cells, 7.12.

As to `CONCc1nn2ccnc(Nc3cc([C@H]4CC[C@@H](OC(=O)NC(C)C)C4)[nH]n3)c2c1C` [Formate salt of compound 1], the negative logarithm of the IC50 (pIC50) against CDK2/cyclin E1 is 8.42; on CDK1/cyclin B1 (setting [2]), less than 6.00; at CDK1/cyclin B1 (setting [3]) it was 5.72; in the data set with T-47D cells it was 6.53; in the data set on OVCAR-3 cells, 7.05.

On to `CNOCc1nn2ccnc(Nc3cc([C@H]4CC[C@@H](OC(=O)NC(C)C)C4)[nH]n3)c2c1F` [Hydrochloride salt of Compound 7], for which the pIC50 at CDK2/cyclin E1 is 8.02; on CDK1/cyclin B1 (setting [2]) it was less than 6.00; at CDK1/cyclin B1 (setting [3]) it was less than 5.00; with T-47D cells, 6.31; in the data set on OVCAR-3 cells it was 6.85.

In the case of `COCc1cc(C(=O)Nc2cc([C@H]3CC[C@@H](OC(=O)NC(C)C)C3)[nH]n2)n(C)n1` [PF-07104091, reference compound], the pIC50 on CDK1/cyclin B1 (setting [2]) is 6.28; with T-47D cells, 6.42; with OVCAR-3 cells it was 6.76. The Vd in data set [1] (intravenous administration, 5 mg/Kg, read-out: Apparent volume of distribution Vdss) stood at 11.8 L/kg. The AUC(0-t) in data set [1] (intravenous administration, 5 mg/Kg) turned out to be 1640 ng·h/mL; in data set [1] (oral administration, 30 mg/Kg), 7520 ng·h/mL. Besides, in data set [1] (intravenous administration, 5 mg/Kg, read-out: Clearance CL), the clearance came out at 50.3 mL/min/kg. Further, the half-life in data set [1] (intravenous administration, 5 mg/Kg, read-out: Half-life T1/2 (converted)) is 2.68 h. Besides, the bioavailability (as a rule, dose-corrected exposure relative to a reference, in per cent) in data set [1] (oral 30 mg/Kg vs intravenous 5 mg/Kg, read-out: Bioavailability F) was 76.2%. The Cmax in data set [1] (oral administration, 30 mg/Kg, read-out: Peak concentration Cmax) was determined as 6320 ng/mL. Moreover, the Tmax (as a rule, the time from dosing to the highest level) in data set [1] (oral administration, 30 mg/Kg, read-out: Time to peak Tmax) is 0.25 h.

For the compound `CNOCc1nn2ccnc(Nc3cc([C@H]4CC[C@@H](OC(=O)NC(C)C)C4)[nH]n3)c2c1C` [Hydrochloride salt of compound 3], the pIC50 was 8.38 on CDK2/cyclin E1; less than 6.00 on CDK1/cyclin B1 (setting [2]); 5.87 on CDK1/cyclin B1 (setting [3]); 6.42 with T-47D cells; 6.73 in the data set on OVCAR-3 cells.
